According to patent publication US20240342169A1 (BETTA PHARMACEUTICALS CO., LTD, priority 2021, published 2024):

How the values were obtained:
[1] = test system: Hs746T cells (harbor an MET exon 14 skipping mutation); assay: Cell proliferation inhibitory activity (CellTiter-Glo); type: cell-based; conditions: Homo sapiens, 168 hours incubation, CTG
Experimental: • 1). Cells in logarithmic growth phase were harvested and counted using cell counter. Trypan blue exclusion test was used to measure the cell viability to make sure the cell viability is at least 90%.
2). Adjust cell concentration, 180 μL cell suspension was added to each well of the 96-well plate at a density of 1200 cells/well.
3). The 96-well plate was incubated overnight under 5% CO2 and 95% humidity conditions at 37° C.
• 1). 20 μL PBS was added to each well of the seeded 96-well plate. • 2). CTG agent was melted and the cell plate was equilibrated to room temperature for 30 minutes. • 3). 100 μL CTG solution was added to each well. • 4). The plate was placed on an orbital shaker for 5 minutes to lyse the cells. • 5). The plate was placed at room temperature for 20 minutes to stabilize the luminescent signal. • 6). TO luminescence value (Lum) was recorded.
• 1). CTG agent was melted and the cell plate was equilibrated to room temperature for 30 minutes. • 2). 100 μL CTG solution was added to each well. • 3). The plate was placed on an orbital shaker for 5 minutes to lyse the cells. • 4). […] Endpoint luminescence value (Lum) was recorded.
The data were analyzed using GraphPad Prism 7.0, in order to calculate IC50, a dose-response curve was fitted using nonlinear regression model with a sigmoidal dose response. […]

Hs746T Xenograft Model = assay: In vivo antitumor activity, Hs746T Xenograft Model; set-up: species or system BALB/c nude mice; conditions: for Tumor volume: 30 mg/kg intragastrically twice a day
From the text: BALB/c nude mice provided by Shanghai Sipur-Bika Experimental Animal Co., Ltd: SPF grade animals, 6-8 weeks old, weighing 18-23 grams; gender: female; number: 18 mice in the group. • Antibiotic(penicillin, streptomycin): (Gibco, 15240-062). • Administration in solvent control group: Aqueous solution containing 0.5% HPMC and 0.4% Tween 80.
In order to prepare a Hs746T Xenograft Model, BALB/c Nude mice were inoculated subcutaneously with Hs746T cells (harbor an MET exon 14 skipping mutation, provided by ATCC (American Type Cultural Collection)). […] Test compounds were administered intragastrically starting from group date, twice a day for 18 days. Safety evaluation was performed based on animal weight changes and death, and efficacy evaluation was performed based on relative tumor inhibition rate (TGI %).
Human gastric cancer Hs746T cells were cultured single layer in vitro using DMEM medium containing […] and 1% antibiotic solution, and incubated in a 5% CO2, 37° C. incubator. The cells were subcultured traditionally twice a week. The cells were harvested when the confluence reached 80%-90% and the number of cells reaches the required level, and then the cells were counted and seeded.
3. Tumor Measurement and Experimental Indicators Tumor diameters were measured twice a week with vernier calipers. The formula for calculating tumor volume was: V=0.5a×b2, where a and b are the long and short diameters of the tumor, respectively.
After the experiment, the tumor weight will be measured and TGI (%) will be calculated to reflect the rate of tumor growth inhibition. Calculation of TGI(%):TGI (%)=[1−(Average tumor volume at the end of administration in a certain treatment group−Average tumor volume at the beginning of administration in this treatment group)/(Average tumor volume at the end of treatment in the solvent control group−Average tumor volume at the beginning of treatment in the solvent control group)]×100%.

[2] = test system: stage IIIB/IV NSCLC carrying a MET exon 14 skipping mutation; assay: Clinical study in NSCLC patients carrying a MET exon 14 skipping mutation; type: in vivo, human; conditions: 225 mg orally once a day
From the text: Inclusion Criteria: Male or female adults, aged >18 years; Patients had newly diagnosed histologically/cytologically confirmed stage IIIB/IV. NSCLC; Patients carrying a MET exon 14 skipping mutation; EGFR/ALK wild type; at least one measurable lesion.

MET(ex14Del) kinase = molecular target: T1, MET(ex14Del) kinase (Homo sapiens, UniProt P08581, DEL963-1009); assay: Kinase inhibitory activity assay (ADP-Glo Kinase Assay Kit); type: biochemical; conditions: 60 minutes at 25° C., read-out: IC50 (half inhibitory concentration) for MET (ex14Del) kinase
T1 construct: purchased Sinalchem (so in the source)
Experimental: • MET(ex14Del) kinase(Sinalchem, M52-12PG); • ADP-Glo Kinase Assay Kit(Promega, V9102);
And then serially diluted 9 times with DMSO at a volume ratio of 1:3 to make 10 concentrations of 100× compound working solution, the diluted compound solution was added to a 384-well plate at a volume of 0.1 μL/well. 5 μL enzyme working solution was added to the 384-well plate, centrifuged at 1000 rpm for 1 minute, incubated 15 minutes at 25° C. 5 μL substrate working solution was added to each well to make 10 concentrations of 1× compound working solution by 3-fold serial dilutions, in which the maximum concentration of the compound solution is 3000 nM, the reaction was triggered and incubated 60 minutes at 25° C. 10 μL ADP-Glo agent(Promega, V9102) was added to each well, centrifuged at 1000 rpm for 1 minute, incubated 15 minutes at 25° C., then 20 μL kinase detection reagent was added to each well, centrifuged at 1000 rpm for 1 minute. RLU (relative luminescence units) was read by Envision Multimode Plate Reader, the value of RLU was used to characterize the degree of reaction between enzyme and substrate, IC50 values were calculated by XLfit 5.3.1 nonlinear regression equation.

T1 sequence (P08581 with tags, fused parts or gaps DEL963-1009 limits assumed): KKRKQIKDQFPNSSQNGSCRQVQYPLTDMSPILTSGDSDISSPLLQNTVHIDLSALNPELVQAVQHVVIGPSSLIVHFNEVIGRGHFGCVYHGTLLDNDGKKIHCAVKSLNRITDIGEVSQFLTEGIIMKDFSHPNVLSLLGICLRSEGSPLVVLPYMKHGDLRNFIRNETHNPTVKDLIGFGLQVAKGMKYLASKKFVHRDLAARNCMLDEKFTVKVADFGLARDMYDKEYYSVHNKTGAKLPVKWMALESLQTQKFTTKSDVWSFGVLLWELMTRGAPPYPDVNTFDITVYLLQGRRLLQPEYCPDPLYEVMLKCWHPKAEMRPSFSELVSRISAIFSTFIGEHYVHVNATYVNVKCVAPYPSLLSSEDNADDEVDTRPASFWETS

C[C@@H]1CN(C(=O)c2ccc(NC(=O)c3cc(O[C@H](C)c4c(Cl)ccc(F)c4Cl)c(N)nn3)cc2)C[C@H](C)N1 [Ensartinib, ensartinib]
IC50 [1]: 31 nM
Tumor growth in tumor-bearing mice (in words) (Hs746T Xenograft Model; 30 mg/kg intragastrically twice a day for 18 days): obvious tumor regression was observed
Tumor volume (Hs746T Xenograft Model; Day 0 (start of dosing)): 128 ± 10 mm^3
Tumor volume (Hs746T Xenograft Model; Day 3): 109 ± 8 mm^3
Tumor volume (Hs746T Xenograft Model; Day 7): 101 ± 8 mm^3
Tumor volume (Hs746T Xenograft Model; Day 10): 74 ± 9 mm^3
Tumor volume (Hs746T Xenograft Model; Day 14): 49 ± 8 mm^3
Tumor volume (Hs746T Xenograft Model; Day 17): 29 ± 15 mm^3
ORR (objective response rate) ([2]; 12/17 patients): 71%
DCR (disease control rate) ([2]; 16/17 patients): 94%
average tumor shrinkage rate ([2]; 17 patients): −37.7%
CR (complete response) ([2]; among 17 patients): 1 case
PR (partial response) ([2]; among 17 patients): 11 cases
IC50 (MET(ex14Del) kinase): 7.6 nM
